Biological target: T1, Aurora kinase A (AURKA) (Homo sapiens, UniProt O14965)
T1 construct: endogenous in cells; host or cells: HeLa LgBit (AURKA-HiBit KI), CRISPR/Cas9 knock-in at the endogenous AURKA locus
T1 sequence (O14965 1-403): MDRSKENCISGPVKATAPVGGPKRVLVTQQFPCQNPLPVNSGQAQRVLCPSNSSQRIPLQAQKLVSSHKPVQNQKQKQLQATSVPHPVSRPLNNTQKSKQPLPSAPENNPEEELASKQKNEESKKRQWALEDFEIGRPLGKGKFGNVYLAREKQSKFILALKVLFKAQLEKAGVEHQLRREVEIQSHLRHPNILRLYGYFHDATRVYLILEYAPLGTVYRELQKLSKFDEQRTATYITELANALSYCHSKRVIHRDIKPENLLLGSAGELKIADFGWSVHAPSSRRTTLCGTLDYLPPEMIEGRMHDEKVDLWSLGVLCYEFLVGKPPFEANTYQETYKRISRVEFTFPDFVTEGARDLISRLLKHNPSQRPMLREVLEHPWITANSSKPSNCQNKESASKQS
Test: Luciferase assay for AURKA in HeLa LgBit (AURKA-HiBit KI) cell line
Format: cell-based
Settings: HeLa LgBit (AURKA-HiBit KI) cells, measured after 12 hours
Description: HeLa cell lines that stably express LgBit were constructed via LgBit vector transfection. Then, donor DNA and guide RNA for insertion of HiBit amino acid sequence at C-terminus of inherent Aurora kinase A (AURKA) genes were designed and constructed. Thereafter, they were transfected into the cell lines with CRISPR/Cas9 expression vector system. HiBit gene knock-in single cells were selected, passaged and used for the experiments.
For cell culture, DMEM (Gibco, Cat. No. 11995-065; Lot. No. 2562497), FBS (Gibco, Cat. No. 16000-044; Lot. No. 2511328P), Penicillin/Streptomycin (PS) (Gibco, Cat. No. 15140-122; Lot. No. 2585636), 90 mm^2 cell culture dish (SPL, Cat. No. 20100), 96-well white plate, PBS pH 7.4 (Gibco, […]), TrypLE™ Express (Gibco, Cat. No. 12605-010; Lot. No. 2522525), counting chamber (hematocytometer) (Hirschmann, Cat. No. 8100204; Lot. No. 8021087) and 0.4% Trypan Blue solution (DYNEBIO, Cat. No. CBT3710; Lot. No. 20231017) were used. Cells were cultured in DMEM supplemented with 10% FBS and 1% PS and incubated in CO2 incubator (Thermo, Cat. No. 4111) at 37° C., 5% CO2 condition.
HeLa LgBit (AURKA-HiBit KI) cell lines were cultured in 90 mm^2 cell culture dish, and 3×10^4 cells in […] of total medium volume were seeded and incubated for 18 hours in CO2 incubator. Then, Eudurazine (Promega, Cat. No. N247B; Lot. No. 495218) was added to each well to make up 1% of the total volume, followed by further incubation for 2 hours in CO2 incubator.
The present compounds were fully dissolved in DMSO (Sigma-Aldrich Cat. No. D2438, Lot. No. RNBL7287) and 10 nM or 100 nM of total concentration were used in the experiment. After adding the compounds in each well of 96-well white plate, the plate was placed in the plate reader (BMG Labtech, CLARIOstar Plus) for real-time analysis. The wavelength for analysis was set to […], and the luminescence value was measured after 12 hours. The luminescence value was analyzed through an Excel program.

Row | SMILES | luminescence value (Level) (10 nM compound) | luminescence value (Level) (100 nM compound)
1 | O=C1CCC(c2ccc(N3CCN(CCN4CC[C@@H](NC(=O)c5ccc(Nc6ncc(F)c(Nc7ccc(C(=O)Nc8ccccc8Cl)cc7)n6)cc5)C4)CC3)cc2)C(=O)N1 (stereo partly drawn) [Compound 64, N-(2-chlorophenyl)-4-((2-((4-(((3R)-1-(2-(4-(4-(2,6-dioxopiperidin-3-yl)phenyl)piperazin-1-yl)ethyl)pyrrolidin-3-yl)carbamoyl)phenyl)amino)-5-fluoropyrimidin-4-yl)amino)benzamide] | B (B is 0.3 to 0.5) | A (A is <0.2)
2 | O=C1CCC(c2ccc(N3CCN(CCN4CC[C@H](NC(=O)c5ccc(Nc6ncc(F)c(Nc7ccc(C(=O)Nc8ccccc8Cl)cc7)n6)cc5)C4)CC3)cc2)C(=O)N1 (stereo partly drawn) [Compound 68, N-(2-chlorophenyl)-4-((2-((4-(((3S)-1-(2-(4-(4-(2,6-dioxopiperidin-3-yl)phenyl)piperazin-1-yl)ethyl)pyrrolidin-3-yl)carbamoyl)phenyl)amino)-5-fluoropyrimidin-4-yl)amino)benzamide] | B (B is 0.3 to 0.5) | A (A is <0.2)
3 | COc1cc(C(=O)NN2CCC(CCN3CCN(c4ccc(C5CCC(=O)NC5=O)cc4)CC3)CC2)ccc1Nc1ncc(F)c(Nc2ccc(C(=O)Nc3ccccc3Cl)cc2)n1 (stereo not shown) [Compound 84, 4-((4-((4-((2-chlorophenyl)carbamoyl)phenyl)amino)-5-fluoropyrimidin-2-yl)amino)-N-(4-(2-(4-(4-(2,6-dioxopiperidin-3-yl)phenyl)piperazin-1-yl)ethyl)piperidin-1-yl)-3-methoxybenzamide] | C (C is 0.5 to 0.7) | B (B is 0.2 to 0.4)
4 | O=C1CC[C@H](NC(=O)c2ccc(N3CCN(CCC4CCN(NC(=O)c5ccc(Nc6ncc(F)c(Nc7ccc(C(=O)Nc8ccccc8Cl)cc7)n6)cc5)CC4)CC3)cn2)C(=O)N1 [Compound 87, (S)-5-(4-(2-(1-(4-((4-((4-((2-chlorophenyl)carbamoyl)phenyl)amino)-5-fluoropyrimidin-2-yl)amino)benzamido)piperidin-4-yl)ethyl)piperazin-1-yl)-N-(2,6-dioxopiperidin-3-yl)picolinamide] | B (B is 0.3 to 0.5) | B (B is 0.2 to 0.4)
5 | O=C1CC[C@H](NC(=O)c2ccc(N3CCN(CCC4CCN(NC(=O)c5ccc(Nc6ncc(F)c(Nc7ccc(C(=O)Nc8ccccc8Cl)cc7)n6)cc5)CC4)CC3)cc2F)C(=O)N1 [Compound 89, (S)-4-(4-(2-(1-(4-((4-((4-((2-chlorophenyl)carbamoyl)phenyl)amino)-5-fluoropyrimidin-2-yl)amino)benzamido)piperidin-4-yl)ethyl)piperazin-1-yl)-N-(2,6-dioxopiperidin-3-yl)-2-fluorobenzamide] | B (B is 0.3 to 0.5) | B (B is 0.2 to 0.4)
6 | O=C1CCC(c2ccc(N3CCN(CCC4CCN(NC(=O)c5ccc(Nc6ncc(F)c(Nc7ccc(C(=O)Nc8ccccc8Cl)cc7)n6)nc5)CC4)CC3)cc2)C(=O)N1 (stereo not shown) [Compound 91, 6-[[4-[4-[(2-chlorophenyl)carbamoyl]anilino]-5-fluoro-pyrimidin-2-yl]amino]-N-[4-[2-[4-[4-(2,6-dioxo-3-piperidyl)phenyl]piperazin-1-yl]ethyl]-1-piperidyl]pyridine-3-carboxamide] | D (D is 0.7 to 0.8) | C (C is 0.4 to 0.6)
7 | O=C1CCC(c2ccc(N3CCN(CCC4CCN(NC(=O)c5ccc(Nc6ncc(F)c(Nc7ccc(C(=O)NC8CCCCC8)cc7)n6)cc5)CC4)CC3)cc2)C(=O)N1 (stereo not shown) [Compound 92, N-cyclohexyl-4-((2-((4-((4-(2-(4-(4-(2,6-dioxopiperidin-3-yl)phenyl)piperazin-1-yl)ethyl)piperidin-1-yl)carbamoyl)phenyl)amino)-5-fluoropyrimidin-4-yl)amino)benzamide] | B (B is 0.3 to 0.5) | A (A is <0.2)
8 | CN(C(=O)c1ccc(Nc2nc(Nc3ccc(C(=O)NN4CCC(CCN5CCN(c6ccc(C7CCC(=O)NC7=O)cc6)CC5)CC4)cc3)ncc2F)cc1)c1ccccc1Cl (stereo not shown) [Compound 102, 4-[[4-[4-[(2-chlorophenyl)-methyl-carbamoyl]anilino]-5-fluoro-pyrimidin-2-yl]amino]-N-[4-[2-[4-[4-(2,6-dioxo-3-piperidyl)phenyl]piperazin-1-yl]ethyl]-1-piperidyl]benzamide] | B (B is 0.3 to 0.5) | A (A is <0.2)
9 | O=C1CCC(c2ccc(N3CCN(CCC4CCN(NC(=O)c5ccc(Nc6ncc(F)c(Nc7ccc(C(=O)Nc8ccccc8Cl)cc7)n6)cc5F)CC4)CC3)cc2)C(=O)N1 (stereo not shown) [Compound 105, 4-[[4-[4-[(2-chlorophenyl)carbamoyl]anilino]-5-fluoro-pyrimidin-2-yl]amino]-N-[4-[2-[4-[4-(2,6-dioxo-3-piperidyl)phenyl]piperazin-1-yl]ethyl]-1-piperidyl]-2-fluoro-benzamide] | B (B is 0.3 to 0.5) | A (A is <0.2)
10 | Cn1nc(C2CCC(=O)NC2=O)c2cc(F)c(N3CCN(CCC4CCN(NC(=O)c5ccc(Nc6ncc(F)c(Nc7ccc(C(=O)Nc8ccccc8Cl)cc7)n6)cc5)CC4)CC3)cc21 (stereo not shown) [Compound 107, N-(2-chlorophenyl)-4-((2-((4-((4-(2-(4-(3-(2,6-dioxopiperidin-3-yl)-5-fluoro-1-methyl-1H-indazol-6-yl)piperazin-1-yl)ethyl)piperidin-1-yl)carbamoyl)phenyl)amino)-5-fluoropyrimidin-4-yl)amino)benzamide] | A (A is <0.3) | A (A is <0.2)
11 | COc1cc(N2CCN(CCC3CCN(NC(=O)c4ccc(Nc5ncc(F)c(Nc6ccc(C(=O)Nc7ccccc7Cl)cc6)n5)cc4F)CC3)CC2)c(F)cc1C1CCC(=O)NC1=O (stereo not shown) [Compound 119, 4-((4-((4-((2-chlorophenyl)carbamoyl)phenyl)amino)-5-fluoropyrimidin-2-yl)amino)-N-(4-(2-(4-(4-(2,6-dioxopiperidin-3-yl)-2-fluoro-5-methoxyphenyl)piperazin-1-yl)ethyl)piperidin-1-yl)-2-fluorobenzamide] | C (C is 0.5 to 0.7) | B (B is 0.2 to 0.4)

Reference: patent US20260226071A1, “2, 4-DIANILINOPYRIMIDINE-BASED AURORA-A KINASE SELECTIVE DEGRADATION INDUCING COMPOUNDS” (UPPTHERA, INC., priority 2023, published 2026)
